Experimental findings from patent US11759411B2, “Non-therapeutic use of a biodegradable hydrocarbon oil” (TOTAL MARKETING SERVICES, priority 2017, dated 2023) are described below.

Marks after values point to notes of the source that are not given here.

Assay [1] concerns HaCaT cells. The experiment in a line: HOECHST 33342 test, condensation of the chromatin. It is filed as cell-based. The following applies: one hour with oil or CM, then 20 minutes with BAC 8 ppm by weight, HOECHST 33342, HaCat cells. The protocol:
The following standards and methods were used to measure the properties hereinabove: • flash point: EN ISO 2719 • density at 15° C.: EN ISO 1185 • viscosity at 40° C.: EN ISO 3104 • aniline point: EN ISO 2977 • boiling point: ASTM D86 • biodegradability: OECD method 306 • refractive index at 20° C.: ASTM D 1218 • vapour pressure: calculated according to methods well known to those skilled in the art Tests for Anti-Wrinkle or Anti-Ageing Cosmetic Applications Preparation of the Tests: • Preparation of the microplates: 24 hours before the incubation with the oils A and B, the HaCaT cells are inoculated with a cell density of 100,000 cells/ml in 96-well microplates (Corning). The microplates are then placed in the incubator at 37° C. In a microplate, each condition was tested at least three times. Each experiment was carried out at least three times independently in order to validate the reproducibility of the results and to carry out statistical analyses. • Incubation of cells with the oils A or B: two durations of incubation were selected for the products to be tested pure: an incubation for fifteen minutes and an incubation for one hour. […]
The cellular effects are evaluated directly on the adherent living cells by cytofluorimetric microtitration (MiFALC tests-Microtitration Fluorimetric Assays on Live Cells). The microplate reader used in the study is the Safire cytometer (Tecan). […]

Assay [2] deals with HaCaT cells. The experiment in a line: H2DCF-DA test, production of ROS after oil then preservative (POE or MIT). The class given is cell-based. The protocol:
The following standards and methods were used to measure the properties hereinabove: • flash point: EN ISO 2719 • density at 15° C.: EN ISO 1185 • viscosity at 40° C.: EN ISO 3104 • aniline point: EN ISO 2977 • boiling point: ASTM D86 • biodegradability: OECD method 306 • refractive index at 20° C.: ASTM D 1218 • vapour pressure: calculated according to methods well known to those skilled in the art Tests for Anti-Wrinkle or Anti-Ageing Cosmetic Applications Preparation of the Tests: • Preparation of the microplates: 24 hours before the incubation with the oils A and B, the HaCaT cells are inoculated with a cell density of 100,000 cells/ml in 96-well microplates (Corning). […]
The cellular effects are evaluated directly on the adherent living cells by cytofluorimetric microtitration (MiFALC tests-Microtitration Fluorimetric Assays on Live Cells). The microplate reader used in the study is the Safire cytometer (Tecan).
The test H2DCF-DA (2′,7′-dihydrodichlorofluoresceine diacetate) is used in order to evaluate the production of reactive oxygen species. […] Thus, an increase in the intensity of fluorescence is combined with an increase in the production of reactive oxygen species (ROS) and by extrapolation with an increase in the oxidative stress in the cells studied.
Preservatives, used as an additive in cosmetic compositions, were evaluated. […]

With benzalkonium chloride [CM + BAC], in assay [1], the “Measurement of the condensation of the chromatin” value is 138*** % relative to the CM. On to `Cn1sccc1=O` [MIT, methylisothiazolinone], for which, in assay [2] (oil or none, then MIT), the “Production of ROS” value was 135 % relative to the CM.

Turning to phenoxyethanol [CM + POE], the “Production of ROS” value in assay [2] (oil or CM (e.g. 15 minutes) then POE (e.g. 30 minutes, phenoxyethanol 250 μg/mL)) is listed as 132 % relative to the CM.
